Test results from US20110124589A1, “INHALED FOSFOMYCIN/TOBRAMYCIN FOR THE TREATMENT OF CHRONIC OBSTRUCTIVE PULMONARY DISEASE” (Gilead Sciences, Inc., priority 2009, published 2011).
Values after ≈ are worked out from the molar mass of the structure shown. Read-outs that look alike come from different tables or passages of the source.

Columns and labels:
H. influenzae [1] = experiment: MIC of recent clinical isolates, agar dilution (CMI study); format: cell-based; details: Haemophilus influenzae
[2] = Sputum drug concentrations following aerosolization of FTI; format: in vivo, human; details: for Cmax: human, sputum, inhaled
Procedure: In order to assess the amount of drug delivered to the respiratory track, drug concentration was measured in expectorated sputum for patients with CF or bronchiectasis. The fosfomycin and tobramycin range for patient type and dose was 1751-2974 μg/g and 326-881 μg/g, respectively.

P. aeruginosa ATCC 27853 [3] = experiment: Time-kill experiments in 2% porcine gastric mucin; format: cell-based; details: 2% mucin
Procedure: These studies were previously reported in PCT Publication no. WO2005/110022 to Gilead Sciences, Inc. (formerly Carus Pharma). Two to three bacterial colonies were inoculated into 10 mL CAMHB and incubated at 35° C. in a shaking water bath (250 rpm) for 18-24 hours. A 1:40 dilution of the overnight culture was made in 10 mL of fresh CAMHB and incubated at 35° C. in a shaking water bath (250 rpm) for 1-2 hours. […] Ten milliliter aliquots were then pipeted into 50 mL conical tubes. […] The killing activity of fosfomycin plus tobramycin was also compared to the killing activity of the individual components. […] A no drug control was conducted in each experiment. […] Bacterial killing was determined at 0, 1, 2, 4, 6, and 24 hours by making 10-fold serial dilutions of the cultures in sterile normal saline, and spreading 100 μl aliquots on blood agar plates. […] The limit of detection for the colony counting method was 1 Log10. Time-kill curves were constructed by plotting the Log10 number of CFU/mL culture versus time.

M. catarrhalis [4] = details: 5 isolates; agar dilution; cited from earlier work
P. aeruginosa C177 = experiment: Rat bacterial pneumonia model
Procedure: Animals were handled according to the guidelines for the Care and use of Laboratory Animals. […] All animal protocols were approved by an IRB/Ethics Committee. Male Sprague-Dawley rats (180-200 g) were obtained from Charles River Laboratories (Hollister, Calif., USA) and acclimatized for 5 days prior to use. Animals were housed individually in ventilated cages, fed Purina Lab Diet ad libitum and allowed free access to water.
Antibiotic efficacy was determined using a rat bacterial pneumonia model. […] Rats were anaesthetized with isoflurane, and ˜10^3 cfu of P. aeruginosa C177 in 2% agar solution were instilled into the lungs with an oral gavage needle. The inoculum was deposited at the first bifurcation and distributed throughout the lungs by inspiration. Animals were allowed to recover for 18 hr post-infection. Each experiment consisted of pre-treatment (n=5-7), saline control with isoflurane, and 100 μL of antibiotic solution or saline was instilled in the trachea using a Microsprayer™ (Penn-Century In., Philadelphia, Pa., USA). Antibiotics were administered intratracheally twice daily for 3 days.
Animals were euthanized by intraperitoneal administration of sodium pentobarbital. The pre-treatment control group was harvested 18 hr post-infection, and the saline and treatment groups 18 hr after the last antibiotic exposure. Lungs were removed aseptically, homogenized in sterile normal saline and viable bacteria determined by the colony count method. Statistical differences between the saline control group and treatment groups were evaluated by the Mann-Whitney Rank Sum Test using GraphPad Prism® software package version 3.03 (GraphPad Software, Inc., San Diego, Calif., USA).

P. aeruginosa ATCC 27853 [5] = experiment: MBC/MIC, broth microdilution
Procedure: The MBCs of fosfomycin and tobramycin alone for P. aeruginosa ATCC 27853, E. coli ATCC 25922, and S. aureus ATCC 29213 were determined by the broth microdilution method according to NCCLS standards (NCCLS, 1999). […] Bacterial strains were streaked onto blood agar plates and incubated at 35° C. for 18-24 hours. Two to three bacterial colonies from the overnight cultures were inoculated into 3 mL of sterile normal saline, vortexed briefly, and adjusted to a 0.5 McFarland standard (NCCLS, 2003). Fifty microliters of bacterial inoculum (approximately 2×10^5 CFU/mL) was pipeted into individual wells of 96-well plates containing 50 μl of CAMHB (Remel, Lenexa, Kanas) supplemented with 2-fold dilutions of antibiotics ranging in concentration from 0.125 μg/mL to 128 μg/mL. […] The contents of wells showing no growth (MIC and above) were mixed with a pipetor and duplicate 10 μl samples spread onto blood agar plates. Culture plates were incubated at 35° C. for 18-24 hours and the number of bacterial colonies on each plate enumerated manually. Rejection values were determined by NCCLS methods which considers the final inoculum size, single or double sampling, pipetting error, and the Poisson distributuion of sample responses (NCCLS, 1999). […] The MBC/MIC ratios were calculated by dividing the MBC by the MIC.

E. coli = details: cited from earlier work
S. aureus [6] = experiment: MIC of recent clinical isolates, agar dilution (CMI study); format: cell-based; details: Staphylococcus aureus
S. aureus [7] = experiment: MIC, agar-plate dilution (Method A); details: Staphylococcus aureus
Procedure: (§1) The efficacy of antibiotics and antibiotic combinations against Gram-positive and Gram-negative bacteria representative of species that cause respiratory infections were evaluated in MIC assays. […] H. influenzae, M. catarrhalis, and S. aureus, were isolated from respiratory tract infections. E. coli ATCC 25922, P. aeruginosa ATCC 27853, and S. aureus ATCC 29213 were used as quality control stains.
Method A: The MICs of fosfomycin alone, tobramycin alone, or combinations of fosfomycin plus tobramycin were determined by the agar-plate dilution method according to NCCLS guidelines (NCCLS, 2003). Bacterial strains were streaked onto Trypic Soy Agar plates (PML Microbiologicals, Wilsonville, Oreg.) containing 5% defibrinated sheep blood (hereafter referred to as blood agar plates) and incubated overnight at 35° C. Two to three bacterial colonies from the overnight cultures were inoculated into 3 mL of sterile normal saline, vortexed briefly, and adjusted to a 0.5 McFarland standard (NCCLS, 2003). The bacterial suspension was diluted 1:40 in sterile normal saline and served as the inoculum. Mueller-Hinton agar plates (hereafter referred to as MHA) were prepared by combining 16 g of agarose (Becton-Dickinson, Sparks, Md.), 22 g of Mueller-Hinton broth powder (Becton-Dickinson, Sparks, Md.), and adjusted to 1 L with distilled water. The agar was sterilized by autoclaving, cooled to 55° C., and supplemented with 25 μg/mL of glucose-6-phosphate (Sigma-Aldrich, St. Louis, Mo.). Twenty-five mL of cooled agar was aliquoted into 50 mL conical tubes and supplemented with appropriate concentrations of antibiotic to achieve concentrations ranging from 0.06 μg/mL to 512 μg/mL. After gently mixing the agar and antibiotic, the suspension was poured into sterile 100 mm petri dishes and allowed to solidify at room temperature. The antibiotic agar plates were inoculated with approximately 2×10^4 CFU/spot with a 48-point inoculator (Sigma-Aldrich, St. Louis, Mo.). The MIC was defined as the lowest concentration of antibiotic (s) that prevented visible growth after incubation for 18-20 hours at 35° C.

M. catarrhalis [8] = experiment: MIC of recent clinical isolates, agar dilution (CMI study); format: cell-based; details: Moraxella catarrhalis; 103 isolates
S. aureus [9] = details: cited from earlier work
Klebsiella spp. [10] = details: 22 isolates; broth microdilution; cited from earlier work
S. pneumoniae [11] = experiment: MIC, agar-plate dilution (Method A); details: Streptococcus pneumoniae
Procedure: as §1
(§2) Method A: The MICs of fosfomycin alone, tobramycin alone, or combinations of fosfomycin plus tobramycin were determined by the agar-plate dilution method according to NCCLS guidelines (NCCLS, 2003). Bacterial strains were streaked onto Trypic Soy Agar plates (PML Microbiologicals, Wilsonville, Oreg.) containing 5% defibrinated sheep blood (hereafter referred to as blood agar plates) and incubated overnight at 35° C. Two to three bacterial colonies from the overnight cultures were inoculated into 3 mL of sterile normal saline, vortexed briefly, and adjusted to a 0.5 McFarland standard (NCCLS, 2003). The bacterial suspension was diluted 1:40 in sterile normal saline and served as the inoculum. Mueller-Hinton agar plates (hereafter referred to as MHA) were prepared by combining 16 g of agarose (Becton-Dickinson, Sparks, Md.), 22 g of Mueller-Hinton broth powder (Becton-Dickinson, Sparks, Md.), and adjusted to 1 L with distilled water. […]

Klebsiella spp. [12] = details: cited from earlier work
B. cepacia complex = details: 20 isolates; agar dilution; cited from earlier work
H. influenzae [13] = details: cited from earlier work
P. aeruginosa [14] = details: agar dilution, cited from earlier work
S. pneumoniae [15] = details: 8 isolates; agar dilution; cited from earlier work
H. influenzae [16] = experiment: MIC, agar-plate dilution (Method A)
Procedure: as §1, §2

S. pyogenes = details: 5 isolates; broth microdilution; cited from earlier work
H. influenzae [17] = details: 16 isolates; agar dilution; cited from earlier work
S. pneumoniae [18] = experiment: MIC of recent clinical isolates, agar dilution (CMI study); format: cell-based
P. aeruginosa [19] = experiment: MIC, agar-plate dilution with 2% porcine gastric mucin (Method B); format: cell-based; details: Pseudomonas aeruginosa; 100 P. aeruginosa strains from cystic fibrosis lung sputum; 2% mucin
Procedure: Bacterial strains were streaked onto […] […] Louis, Mo.). […] Louis, Mo.). […] Methodologies were identical to that described in Method A above, with the exception that 2% (weight/volume) porcine gastric mucin (Sigma Chemical Co., St. Louis, Mo.) was added to the MHA prior to autoclaving.

P. aeuriginosa = experiment: Dose-response time-kill studies in 2% mucin; format: cell-based

NC[C@H]1O[C@H](O[C@H]2[C@H](O)[C@@H](O[C@H]3O[C@H](CO)[C@@H](O)[C@H](N)[C@H]3O)[C@H](N)C[C@@H]2N)[C@H](N)C[C@@H]1O [Tobramycin]
MIC50 (H. influenzae [1]; β-lactamase neg, 62 isolates): 4 µg/mL
MIC90 (H. influenzae [1]; β-lactamase neg, 62 isolates): 8 µg/mL
MIC50 (H. influenzae [1]; β-lactamase pos, 39 isolates): 4 µg/mL
MIC90 (H. influenzae [1]; β-lactamase pos, 39 isolates): 4 µg/mL
sputum concentration range for patient type and dose ([2]; both FTI doses, CF and bronchiectasis patients): 326 to 881 µg/g
Cmax ([2]; 20 mg, patients with Bronchiectasis, aerosolized 80:20 mg FTI): 326000 ng/g
Cmax ([2]; 20 mg, patients with Cystic Fibrosis, aerosolized 80:20 mg FTI): 580000 ng/g
Cmax ([2]; 40 mg, patients with Bronchiectasis, aerosolized 160:40 mg FTI): 587000 ng/g
Cmax ([2]; 40 mg, patients with Cystic Fibrosis, aerosolized 160:40 mg FTI): 881000 ng/g
activity at 24 hours in time-kill curves (FIG. 2) (P. aeruginosa ATCC 27853 [3]; 12.8 μg/mL fosfomycin, 3.2 μg/mL tobramycin, or both, 24 hours): re-growth was observed
killing activity in time-kill curves (FIG. 2) (P. aeruginosa ATCC 27853 [3]; 4×MIC: 12.8 μg/mL fosfomycin + 3.2 μg/mL tobramycin vs the components alone): bacteriostatic activity
killing activity in time-kill curves (FIG. 1) (P. aeruginosa ATCC 27853 [3]; 9:1 combination (fosfomycin 14.4 μg/mL + tobramycin 1.6 μg/mL) vs the components alone): bacteriostatic killing
MIC range (M. catarrhalis [4]): 0.5 to 1 µg/mL
reduction in lung burden (P. aeruginosa C177; 1 mg/kg of tobramycin alone (FIG. 11)): ~500 fold
bacterial killing in rat lung (P. aeruginosa C177; 2.5 mg/kg intratracheally twice daily for 3 days (FIG. 11)): 3 Log10
eradication of P. aeruginosa infection (P. aeruginosa C177; doses higher than 3 mg/kg intratracheally): complete eradication
bacterial killing in rat lung (P. aeruginosa C177; doses=0.5 mg/kg intratracheally): did not result in bacterial killing
MBC/MIC (P. aeruginosa ATCC 27853 [5]): 1
Range of MBC/MIC (E. coli; 10 strains): 1-4
strains against which bactericidal (E. coli): 100%
MIC50 (S. aureus [6]; MRSA, 103 isolates): 0.5 µg/mL
MIC90 (S. aureus [6]; MRSA, 103 isolates): > 32 µg/mL
MIC50 (S. aureus [6]; MSSA, 104 isolates): 0.25 µg/mL
MIC90 (S. aureus [6]; MSSA, 104 isolates): 0.5 µg/mL
MIC (S. aureus [7]): 64 µg/mL (≈ 137 µM)
MIC (S. aureus [7]; MRSA): 0.25 µg/mL (≈ 0.535 µM)
MIC (S. aureus [7]; MSSA): 0.25 µg/mL (≈ 0.535 µM)
MIC (S. aureus [7]; strain COR-059): 128 µg/mL (≈ 274 µM)
MIC50 (M. catarrhalis [8]): 0.12 µg/mL
MIC90 (M. catarrhalis [8]): 0.25 µg/mL
Range of MBC/MIC (S. aureus [9]; 10 strains): 1-2
strains against which bactericidal (S. aureus [9]): 100%
MIC50 (Klebsiella spp. [10]): 0.13 µg/mL (≈ 0.278 µM)
MIC90 (Klebsiella spp. [10]): 16 µg/mL (≈ 34.2 µM)
MIC (S. pneumoniae [11]; strain COR-061): 64 µg/mL (≈ 137 µM)
MIC (S. pneumoniae [11]; strain COR-068): 16 µg/mL (≈ 34.2 µM)
Range of MBC/MIC (Klebsiella spp. [12]; 5 strains): 1-4
strains against which bactericidal (Klebsiella spp. [12]): 100%
MIC50 (B. cepacia complex): 64 µg/mL (≈ 137 µM)
MIC90 (B. cepacia complex): 512 µg/mL (≈ 1100 µM)
Range of MBC/MIC (H. influenzae [13]; 6 strains): 1-2
strains against which bactericidal (H. influenzae [13]): 100%
MIC50 (P. aeruginosa [14]; CF, 100 isolates): 2 µg/mL (≈ 4.28 µM)
MIC90 (P. aeruginosa [14]; CF, 100 isolates): 16 µg/mL (≈ 34.2 µM)
MIC50 (P. aeruginosa [14]; non-CF, 60 isolates): 1 µg/mL (≈ 2.14 µM)
MIC90 (P. aeruginosa [14]; non-CF, 60 isolates): 128 µg/mL (≈ 274 µM)
MIC range (S. pneumoniae [15]): 16 to 64 µg/mL
MIC (H. influenzae [16]; Haemophilus influenzae): 0.5 µg/mL (≈ 1.07 µM)
MIC (H. influenzae [16]; strain COR-049): 0.5 µg/mL (≈ 1.07 µM)
MIC range (S. pyogenes): 16 to 64 µg/mL
MIC50 (H. influenzae [17]): 1 µg/mL (≈ 2.14 µM)
MIC90 (H. influenzae [17]): 1 µg/mL (≈ 2.14 µM)
MIC range (H. influenzae [17]): 0.5 to 1 µg/mL
MIC50 (S. pneumoniae [18]; Penicillin resistant, 32 isolates): 32 µg/mL
MIC90 (S. pneumoniae [18]; Streptococcus pneumoniae, Penicillin resistant, 32 isolates): > 32 µg/mL
MIC90 (S. pneumoniae [18]; Streptococcus pneumoniae, penicillin suscept., 39 isolates): > 32 µg/mL
MIC50 (S. pneumoniae [18]; Streptococcus pneumoniae, penicillin suscept., 39 isolates, read-out: MIC50): 32 µg/mL
MIC50 (P. aeruginosa [19]): 16 µg/mL (≈ 34.2 µM)
MIC90 (P. aeruginosa [19]): 64 µg/mL (≈ 137 µM)
bactericidal or bacteriostatic (P. aeuriginosa; 2% mucin (FIGS. 4-6)): rapidly bactericidal
time-dependent or concentration-dependent killing (P. aeuriginosa; 2% mucin (FIGS. 4-6)): concentration-dependent killing
re-growth within 24 hours (P. aeuriginosa; 2% mucin (FIGS. 5-6)): re-growth occurred within 24 hours
